The source of these data is US20210227869A1, “Formula with a specific beta-lactoglobulin peptide” (N.V. Nutricia, priority 2018, published 2021).

Experiment [1] concerns cow's milk-specific T-cell line TCL A. Description: T-cell proliferation assay. In kind it is cell-based, human. The settings on record: synthetic peptide, SI≥2 considered positive, FIG. 2. The protocol: (§1) Synthetic peptides were obtained from JPT technologies. Only peptides containing at least 9 AAs were taken into account, as this is the minimal size for binding to MHC class II molecules and subsequent T-cell recognition (Holland et al, Front Immunol 2013 Jul. 1; 4:172.) Synthetic peptides (JPT technologies) identical to the peptides identified in all batches of the HP of example 1 were dissolved in dimethylsulfoxide (Sigma Aldrich) at a concentration of 5.3 mM. The peptides were tested on cow's milk-specific T-cell lines (TCLs) from three different donors. The peptides were tested on cow's milk protein-specific T-cell lines (TCLs) from three infant donors, diagnosed with cow's milk protein allergy. […] Proliferation was determined as described previously (Ruiter et al, Clin Exp Allergy 2006, 36(3):303-310). Stimulation indexes (Sls, ratio between proliferation of allergen/peptide-stimulated and non-stimulated T cells) were calculated and a SI≥2 was considered positive.
(§2) To confirm that the peptides identified in HP were recognized by T cells, synthetic peptides identical to these identified peptides were tested on cow's milk-specific human TCLs. As there was a considered overlap between the identified peptides, five peptides were tested (Table 7) that were identified in all batches and differed with more than 9A from each other. All tested peptides were able to induce proliferation (FIG. 2). […] This was also seen with the in silico prediction data (data not shown). […] As peptide LIV . . . […] SLL (AA #1-32) did, the region containing AA #28-32 (DISLL) was essential for the response of TCL A. Unexpectedly, TCL C recognized peptide LIV . . . AAS (AA #1-27), while the longer peptide containing the same sequence with 5 additional AAs, LIV . . .

Experiment [2] deals with cow's milk-specific T-cell line TCL C. Nature of the experiment: T-cell proliferation assay. Particulars: synthetic peptide, SI≥2 considered positive, FIG. 2. In kind it is cell-based, human. The procedure:
as §1, §2

Turning to “LIVTQTMKGLDIQKVAGTWYSLAMAAS (beta-lactoglobulin peptide fragment) [SEQ ID NO: 9]”, the “T cell proliferation (stimulation index)” value in experiment [1] was “not able to induce proliferation”; in experiment [2], “recognized”.

For the sequence “LIVTQTMKGLDIQKVAGTWYSLAMAASDISLL (beta-lactoglobulin peptide fragment) [SEQ ID NO: 11]”, in experiment [2], the “T cell proliferation (stimulation index)” value is on record as “not able to induce a proliferative response”.
